As usually defined, the EC50 is the concentration giving half of the maximal effect.

Experimental findings from patent US12172959B2, “Mono- or di-substituted indole derivatives as dengue viral replication inhibitors” (priority 2015, dated 2024) are described below.

SMILES strings stand for the structures.

Holding throughout (assay type): cell-based
Assay [1] has as its system DENV-1 strain Djibouti strain (D1/H/IMTSSA/98/606). The assay is described as follows: Tetravalent RT-qPCR assay Protocol B, serotype 1. The note with it: Dengue virus, DENV1, 168 h, RT-qPCR serotype 1 Djibouti, 7 days. The method, then: (§1) The antiviral activity of the compounds of the invention was tested against DENV-1 strain Djibouti strain (D1/H/IMTSSA/98/606; Table 6), DENV-2 strain NGC (Table 7), DENV-3 strain H87 (Table 8) and DENV-4 strain SG/06K2270DK1/2005 (Table 9B) in a RT-qPCR assay. Vero-B or Vero-M cells (5×10^4) were seeded in 96-well plates. One day later, culture medium was replaced with 100 μL assay medium containing a 2×, 3× or 5× serial dilution of the compound (concentration range: 50 μg/mL-0.00038 μg/mL, 50 μg/mL-0.0076 μg/mL, and 50 μg/mL-0.00013 μg/mL, respectively) and 100 μL of dengue virus inoculum (DENV). Following a 2 hour incubation period, the cell monolayer was washed 3 times with assay medium to remove residual, non-adsorbed virus and cultures were further incubated for either 4 days (DENV-2 NGC) or 7 days (DENV-1 Djibouti strain D1/H/IMTSSA/98/606, DENV-3 strain H87 prototype, DENV-4 strain H241, and DENV-4 strain EDEN) in the presence of the inhibitor. Supernatant was harvested and viral RNA load was determined by real-time quantitative RT-PCR. The 50% effective concentration (EC50), which is defined as the compound concentration that is required to inhibit viral RNA replication by 50%, was determined using logarithmic interpolation.
(§2) RNA was isolated from 100 μL (or in some circumstances 150 μL) supernatant with the NucleoSpin 96 Virus kit (Filter Service, Duren, Germany) as described by the manufacturer. The sequences of the TaqMan primers (DENV-For, DENV-Rev; Table 5) and TaqMan probes (DENV-Probe Table 5) were selected from non-structural gene 3 (NS3) or NS5, of the respective flaviviruses using Primer Express software (version 2.0; Applied Biosystems, Lennik, Belgium). The TaqMan probe was fluorescently labelled with 6-carboxyfluorescein (FAM) at the 5′ end as the reporter dye, and with minor groove binder (MGB) at the 3′ end as the quencher (Table 5). One-step, quantitative RT-PCR was performed in a total volume of 25 μL, containing 13.9375 μL H2O, 6.25 μL master mix (Eurogentec, Seraing, Belgium), 0.375 μL forward primer, 0.375 μL reverse primer, 1 μL probe, 0.0625 μL reverse transcriptase (Eurogentec) and 3 μL sample. RT-PCR was performed using the ABI 7500 Fast Real-Time PCR System (Applied Biosystems, Branchburg, New Jersey, USA) using the following conditions: 30 min at 48° C. and 10 min at 95° C., followed by 40 cycles of 15 s at 95° C. and 1 min at 60° C. The data was analyzed using the ABI PRISM 7500 SDS software (version 1.3.1; Applied Biosystems). For absolute quantification, standard curves were generated using 10-fold dilutions of template preparations of known concentrations.
On the technique in general: Real-time PCR tracks product formation cycle by cycle.

For assay [2], the system named is DENV-2 strain 16681. The assay is described as follows: Tetravalent RT-qPCR assay Protocol A, serotype 2. Particulars: Dengue virus, DENV2, 72 h; Protocol A, RT-qPCR serotype 2 16681, Vero cells, day 3; read-out: EC50. On the procedure: (§3) The antiviral activity of the compounds of the invention was tested against DENV-1 strain TC974#666 (NCPV; Table 6), DENV-2 strain 16681 (Table 7), DENV-3 strain H87 (NCPV; Table 8) and DENV-4 strains H241 (NCPV; Table 9A) and SG/06K2270DK1/2005 (Eden; Table 9B) in a RT-qPCR assay. Therefore, Vero cells were infected with either DENV-1, or -2, or -3, or -4 in the presence or absence of test compounds. At day 3 post-infection, the cells were lysed and cell lysates were used to prepare cDNA of both a viral target (the 3′UTR of DENV; Table 2) and a cellular reference gene (β-actin, Table 2). Subsequently, a duplex real time PCR was performed on a Lightcycler480 instrument. The generated Cp value is inversely proportional to the amount of RNA expression of these targets. Inhibition of DENV replication by test compound results in a shift of Cp's for the 3′UTR gene. On the other hand, if a test compound is toxic to the cells, a similar effect on β-actin expression will be observed. The comparative ΔΔCp method is used to calculate EC50, which is based on the relative gene expression of the target gene (3′UTR) normalized with the cellular housekeeping gene (β-actin).
(§4) The culture medium consisted of minimal essential medium supplemented with 2% of heat-inactivated fetal calf serum, 0.04% gentamycin (50 mg/mL) and 2 mM of L-glutamine. Vero cells, obtained from ECACC, were suspended in culture medium and 75 μL/well was added in 96-well plates (10000 cells/well), which already contain the antiviral compounds. […] In addition, each plate contains wells which are assigned as virus controls (containing cells and virus in the absence of compound) and cell controls (containing cells in the absence of virus and compound). Once the cells were added in the plates, the plates were incubated in a fully humidified incubator (37° C., 5% CO2) until the next day. Dengue viruses serotype-1, 2, 3 and 4 were diluted in order to obtain a Cp of ˜22-24 in the assay. Therefore, 25 μL of virus suspension was added to all the wells containing test compound and to the wells assigned as virus control. In parallel, 25 μL of culture medium was added to the cell controls. Next, the plates were incubated for 3 days in a fully humidified incubator (37° C., 5% CO2). After 3 days, the supernatant was removed from the wells and the cells were washed twice with ice-cold PBS (˜100 μL). The cell pellets within the 96-well plates were stored at −80° C. for at least 1 day. Next, RNA was extracted using the Cells-to-CT™ lysis kit, according to the manufacturer's guideline (Life Technologies). The cell lysates can be stored at −80° C. or immediately used in the reverse transcription step.
(§5) In preparation of the reverse transcription step, mix A (table 3A) was prepared and 7.57 μL/well was dispensed in a 96-well plate. After addition of 5 μL of the cell lysates, a five minute denaturation step at 75° C. was performed (table 3B). Afterwards, 7.43 μL of mix B was added (table 3C) and the reverse transcription step was initiated (table 3D) to generate cDNA.
(§6) Finally, a RT-qPCR mix was prepared, mix C (table 4A), and 22.02 μL/well was dispensed in 96-well LightCycler qPCR plates to which 3 μL of cDNA was added and the qPCR was performed according to the conditions in table 4B on a LightCycler 480.
(§7) Using the LightCycler software and an in-house LIMS system, dose response curves for each compound were calculated and the half maximal effective concentration (EC50) and the half maximal cytotoxic concentration (CC50) were determined.

Assay [3] concerns DENV-3 strain H87. The assay is described as follows: Tetravalent RT-qPCR assay Protocol B, serotype 3. Particulars: Dengue virus, DENV3, 168 h, RT-qPCR serotype 3 H87, 7 days. The method, then:
as §1, §2

Assay [4] relates to DENV-3 strain H87. The assay is described as follows: Tetravalent RT-qPCR assay Protocol A, serotype 3. The note with it: Dengue virus, DENV3, 72 h, RT-qPCR serotype 3 H87, Vero cells, day 3. On the procedure:
as §3, §4, §5, §6, §7

For `COc1cc(NC(C(=O)c2c[nH]c3c(C)c(OC)ccc23)c2ccc(Cl)cc2OC)cc(S(C)(=O)=O)c1` (single isomer, unassigned) [Compound 6A, 2-(4-chloro-2-methoxyphenyl)-2-((3-methoxy-5-(methyl-sulfonyl)phenyl)amino)-1-(6-methoxy-7-methyl-1H-indol-3-yl)ethanone], the EC50 is below 14 nM in assay [1], 0.11 nM in assay [2], below 14 nM in assay [3] and 19 nM in assay [4].
Regarding `COc1cc(NC(C(=O)c2c[nH]c3cc(F)ccc23)c2ccc(Cl)cc2OC)cc(S(C)(=O)=O)c1` (single isomer, unassigned) [Compound 1A, 2-(4-chloro-2-methoxyphenyl)-1-(6-fluoro-1H-indol-3-yl)-2-((3-methoxy-5-(methylsulfonyl)phenyl)amino)ethanone], the EC50 in assay [1] was below 15 nM; in assay [2], 0.28 nM; in assay [3], below 15 nM; in assay [4] it was 23 nM.
Regarding `COc1cc(NC(C(=O)c2c[nH]c3cc(OC)c(C)cc23)c2ccc(Cl)cc2OC)cc(S(C)(=O)=O)c1` (single isomer, unassigned) [Compound 4A, 2-(4-chloro-2-methoxyphenyl)-2-((3-methoxy-5-(methyl-sulfonyl)phenyl)amino)-1-(6-methoxy-5-methyl-1H-indol-3-yl)ethanone], the EC50 in assay [1] is below 14 nM; in assay [2], 0.2 nM; in assay [3], below 14 nM; in assay [4], 15 nM.
Regarding `COc1cc(NC(C(=O)c2c[nH]c3cc(OC)c(F)cc23)c2ccc(Cl)cc2OC)cc(S(C)(=O)=O)c1` (single isomer, unassigned) [Compound 5A, 2-(4-chloro-2-methoxyphenyl)-1-(5-fluoro-6-methoxy-1H-indol-3-yl)-2-((3-methoxy-5-(methylsulfonyl)phenyl)amino)ethanone], the EC50 in assay [1] was below 14 nM; in assay [2] it was 0.34 nM; in assay [3], 22 nM; in assay [4], 53 nM.
On to `COc1cc(NC(C(=O)c2c[nH]c3c(C)c(F)ccc23)c2ccc(Cl)cc2OC)cc(S(C)(=O)=O)c1` (single isomer, unassigned) [Compound 2A, 2-(4-chloro-2-methoxyphenyl)-1-(6-fluoro-7-methyl-1H-indol-3-yl)-2-((3-methoxy-5-(methylsulfonyl)phenyl)amino)ethanone], for which the half-maximal effective concentration (EC50) was below 14 nM in assay [1], 0.24 nM in assay [2], below 14 nM in assay [3] and 19 nM in assay [4].
